The text below walks through data of PMC4986690 (Analytical chemistry, 2015).

In experiment [1] the target is human serum albumin (HSA) (Homo sapiens, UniProt P02768). The experiment in a line: ultrafast affinity extraction, two-dimensional HSA microcolumns, UV […] nm. Type of experiment: binding.
Experiment [2] deals with T1, sex hormone binding globulin (SHBG) (Homo sapiens, UniProt P04278).
T1 sequence (P04278 30-402): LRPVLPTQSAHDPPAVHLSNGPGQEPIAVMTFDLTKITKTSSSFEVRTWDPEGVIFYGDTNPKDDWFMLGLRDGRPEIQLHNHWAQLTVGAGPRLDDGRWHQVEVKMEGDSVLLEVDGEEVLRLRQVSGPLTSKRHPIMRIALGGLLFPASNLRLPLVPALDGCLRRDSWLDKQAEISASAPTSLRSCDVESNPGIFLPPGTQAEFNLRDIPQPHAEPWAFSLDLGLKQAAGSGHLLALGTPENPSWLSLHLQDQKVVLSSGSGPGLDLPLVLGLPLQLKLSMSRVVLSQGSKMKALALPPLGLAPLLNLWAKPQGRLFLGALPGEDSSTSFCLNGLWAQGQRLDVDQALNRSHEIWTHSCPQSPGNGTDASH

human serum albumin (HSA), sequence (P02768 25-609): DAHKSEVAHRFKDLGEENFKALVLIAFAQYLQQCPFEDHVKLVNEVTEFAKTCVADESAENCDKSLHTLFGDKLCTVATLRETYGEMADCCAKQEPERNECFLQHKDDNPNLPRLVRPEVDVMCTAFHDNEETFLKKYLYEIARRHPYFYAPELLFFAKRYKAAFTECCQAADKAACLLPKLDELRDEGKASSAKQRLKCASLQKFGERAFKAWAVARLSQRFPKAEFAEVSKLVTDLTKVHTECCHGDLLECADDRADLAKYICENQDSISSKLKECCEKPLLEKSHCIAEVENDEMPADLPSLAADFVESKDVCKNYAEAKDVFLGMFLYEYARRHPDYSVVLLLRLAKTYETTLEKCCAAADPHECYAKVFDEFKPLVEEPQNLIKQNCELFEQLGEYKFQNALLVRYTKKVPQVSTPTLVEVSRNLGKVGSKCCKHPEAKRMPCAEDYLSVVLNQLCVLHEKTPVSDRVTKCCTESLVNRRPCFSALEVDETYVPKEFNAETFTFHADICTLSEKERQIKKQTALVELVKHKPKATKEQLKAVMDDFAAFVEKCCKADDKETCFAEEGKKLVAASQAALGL

The term Kd denotes a measure of binding affinity in units of concentration. A lower Kd goes with higher affinity. As for `C[C@]12CC[C@H]3[C@@H](CCC4=CC(=O)CC[C@@]43C)[C@@H]1CC[C@@H]2O` [testosterone], the dissociation constant Kd in experiment [1] is 31.2 µM; in experiment [2], 0.909 nM.
